Results: PMC11679793, “Structure-Activity Relationship Study of Majusculamide D: Overcoming Metabolic Instability and Severe Toxicity with a Fluoro Analogue” (Marine Drugs, 2024)

Key:
[1] = system: pancreatic cancer cells; test: Clone formation assay; assay type: cell-based; conditions: 48 h treatment then 10 days culture, concentration-dependent, vs control
Excerpt: dependent manner (Figure S1C). […]
growth and survival of pancreatic cancer cells. […]
Snail and TCF8/ZEB1 both […]
are transcription factors that can inhibit the expression of E-cadherin and promote the EMT process. Vimentin is a marker protein of mesenchymal cells, and its expression increases during EMT, further contribute to the process of metastasis by supporting the structural changes needed for cell migration and invasion.
We examined the effects of compound 1a on above key proteins involved in tumor progression pathways employing Western blot analysis in PANC-1 cells and MIA PaCa-2 […]
1a might inhibit cancer cell invasion and migration by enhancing cell-cell adhesion and barrier function. Conversely, the expression levels of β-catenin, Fibronectin, Snail, […]
Cells were resuspended at a concentration of 300 cells/mL, and 2 mL of the suspension was added to each well of a 6-well plate. After the cells adhered to the plate, the compound was added, and the cells were incubated for 48 hours, followed by replacement with fresh medium. The cells were then cultured for an additional 10 days. Subsequently, the cells were fixed with methanol and stained with crystal violet. The colonies were imaged under a microscope and quantified using ImageJ.
The BeyoClick™ EdU-488 Cell Proliferatio n Assay Kit (Beyotime Biotechnology, China) was used according to the manufacturer's instructions. […]

[2] = system: β-catenin, Claudin-1, E-cadherin, Fibronectin, Snail, TCF8/ZEB1, Vimentin in PANC-1 cells and MIA PaCa-2 cells; test: Western blot assay of Wnt/EMT biomarkers; assay type: cell-based; conditions: PANC-1 and MIA PaCa-2 cells
Excerpt: It is well established that the metastasis of tumors was accompanied by the change of several special proteins. β-catenin is an intracellular signaling molecule primarily involved in the Wnt signaling pathway and regulates cell proliferation and differentiation. The abnormal activation of β-catenin is associated with tumor development and increased invasiveness. Claudin-1 belongs to the tight junction protein family, which maintains the barrier function between cells and is correlated with some cancers’ metastatic ability. E-cadherin is an intercellular adhesion molecule, and its decreased expression is common in the phenotype transition process of cancer cells, such as epithelial-mesenchymal transition (EMT), which is a key step in cancer metastasis. Fibronectin is an extracellular matrix protein involved in cell adhesion and migration, and its expression is often positively associated with cancer’s metastatic ability. Snail and TCF8/ZEB1 both are transcription factors that can inhibit the expression of E-cadherin and promote the EMT process. Vimentin is a marker protein of mesenchymal cells, and its expression increases during EMT, further contribute to the process of metastasis by supporting the structural changes needed for cell migration and invasion. […]
Cells were lysed in RIPA lysis buffer (Solarbio, China). The protein concentration was determined using the BCA assay. […]

[3] = Preliminary water solubility test; assay type: physicochemical; conditions: 25 °C, ultrasonic treatment 30 min, visual
[4] = system: pancreatic cancer cells; parameters: method as in PMID 30673235; conditions: cited from earlier work

In the case of `CCCCC(C)CC(C)C(=O)N(C)C(Cc1ccc(OC)cc1)C(=O)NC(C(=O)N(C)C(C(=O)N1CC(O)CC1C(=O)N1C(=O)C=CC1C)C(C)C)C(C)OC(C)=O` (centres unmarked) [Compound 1a, Majusculamide D], the colony formation [1] is reported as “remarkably reduced colony formation”, the “expression levels of β-catenin, Fibronectin, Snail, TCF8/ZEB1 and Vimentin” value ([2]; increasing concentrations) is reported as “decreased” and the “expression levels of Claudin-1 and E-cadherin” value ([2]; rising concentrations) is reported as “increased”. For the same molecule, the “Solubility (mg/mL)” value [3] was “Insoluble” and the “selectivity against pancreatic cancer cells in vitro” value [4] was “up to 4 × 10^3”.
